Results as given in US6812335B1, “Human polypeptide receptors for lysophospholipids and sphingolipids and nucleic acids encoding the same” (The Regents of the University of California, priority 1999, dated 2004).
Values joined by “and” are separate entries in the source; they are usually repeats but may differ in a detail not shown here. Equal values may be shown once. Read-outs that look alike come from different tables or passages of the source.

Legend:
MCF-7 BCCs = assay: SRE-firefly luciferase reporter assay in MCF-7 BCCs; format: cell-based, human; conditions: for maximal increase of mean luciferase luminometric activity: 10^−10 M to 10^−6 M lipid, 4 h
MDA-MB-453 BCCs = assay: SRE-firefly luciferase reporter assay in MDA-MB-453 BCCs; format: cell-based, human; conditions: for mean maximal increase of luciferase luminometric activity: 10^−10 M to 10^−6 M lipid, 4 h
MCF-7 BCC = MCF-7 BCC secretion of IGF-II; format: cell-based, human
Edg4 [1] = target: T1, Edg4 (Homo sapiens, UniProt Q9HBW0); assay: SRE-luciferase reporter gene assay in Edg4-transfected Jurkat cells; format: cell-based
T1 construct: The Edg4 protein consists of 382 amino acids with an estimated molecular weight of 42,626 daltons; expressed in transfected cells; host or cells: Jurkat leukemic T cells, transient transfection with Edg4/EF3 (pCDEF3 vector)

Edg2 = target: T2, Edg2 (Homo sapiens, UniProt Q92633); assay: SRE-luciferase reporter gene assay in Edg2-transfected Jurkat cells; format: cell-based; conditions: for EC50: 10-h incubation, read-out: EC50 of activation of SRE-driven reporter gene
T2 construct: the 1.1-kb cDNA coding region of human Edg2 was cleaved from Edg2/RSV (An et al., supra) and also subcloned into pCDEF3; expressed in transfected cells; host or cells: Jurkat leukemic T cells, transient transfection with Edg2/EF3 (pCDEF3 vector)

Tsup-1 cells [2] = conditions: cited from earlier work
Tsup-1 cells [3] = assay: Anti-Fas antibody-induced apoptosis of Tsup-1 cell transfectants (DNA endlabeling)
Method: Human CD4+8+3^low T lymphoblasts of the Tsup-1 line were cultured in RPMI-1640 medium (UCSF Cell Culture facility) containing 10% (v:v) fetal bovine serum (FBS), 100 U/ml of penicillin G, 100 ug/ml of streptomycin and 1 mM beta-mercaptoethanol (complete RPMI medium) at 37° C. in 5% CO2 in air. Complete RPMI medium was added to cultures every 2-3 days to maintain a density of 0.5-1×10^6 Tsup-1 cells/ml.
Briefly, after conditioning at low serum concentrations replicate suspensions of 5×10^5 Tsup-1 cells in 0.5 ml of RPMI-0.1% FBS were incubated in 24-well plastic plates (Falcon, Inc., Oxnard, Calif.) for 16 h at 37° C. in 5% CO2 in air. Some wells were precoated overnight at 4° C. with 30 ng of anti-Fas antibody (Pharmingen, Inc., San Diego, Calif.), 0.2 ug of anti-CD2 antibody (Pharmirigen, Inc., San Diego, Calif.) or a combination of 0.5 ug each of anti-CD3 antibody (Caltag Laboratories, Inc., So. San Francisco, Calif.) and anti-CD28 antibody (Bristol-Myers Squibb Pharmaceutical Research Institute, Seattle, Wash.), and in others 5 uM C6 ceramide was the stimulus for apoptosis.
Transfections of replicate suspensions of 4×10^6 cells in 2 ml of RPMI-2% FBS cultured as in Example 6 above were carried out by dropwise addition of a 250 ul preincubated mixture of 5 ug of antisense plasmid DNA, 0.2 ug of DNA of the REP 4 plasmid (InVitrogen, San Diego, Calif.) encoding hygromycin resistance and 15 ul of FuGENE 6 non-liposomal lipofection reagent (Boehringer-Mannheim Corp., Indianapolis, Ind.), incubation for 16-24 hours, and washing once and incubation in 4 ml of RPMI-10% FBS with 800 ug/ml of hygromycin for seven additional days. Then the surviving transfectants were washed and cultured in 4 ml of RPMI-0.1% FBS for 16 hours. Antisense plasmids containing full-length cDNA encoding Edg-2, -3, -4 and -5 receptors in the reverse orientation relative to promotors were constructed in the expression vectors pRc/CMV2 for Edg-2, pcDNA 3.1 for Edg-3 and Edg4 (InVitrogen, Inc., Carlsbad, Calif.) and pSV.SPORT1 for Edg-5 (GIBCO BRL, Gaithersburg, Md.) Control cells were sham-transfected with plasmids lacking these antisense inserts.
Briefly, cells from each well were pelleted at 200×g for 5 min at 4° C., resuspended in 0.5 ml of phosphate-buffered 4% formaldehyde, kept at room temperature for 10 minutes, re-pelleted, resuspended in 150 ul of 80% ethanol and immobilized and dried on poly-L-lysine precoated glass slides. Each slide was rehydrated in 20 mM Tris-130 mM NaCl (pH 7.6), and endogenous peroxidases were inactivated by treatment with 3% H2O2 in 90% methanol for 5 minutes at room temperature prior to endlabeling according to the procedures described in instructions for the Klenow-FragEL kit (Oncogene research Products-Calbiochem, Inc. La Jolla, Calif.). Percentage apoptosis was calculated from the number of Tsup-1 cells with stained nuclei of a total of 200 counted.

Edg4 [4] = assay: SRE-luciferase reporter gene assay in Edg4-transfected Jurkat cells; format: cell-based, human; conditions: Edg4 versus Edg2 transfectants
[5] = test system: Jurkat cells transfected with empty pCDEF3 vector; format: cell-based; conditions: control Jurkat cells
Edg4 [6] = target: T1, Edg4; assay: [3H]LPA receptor binding assay in Edg4-transfected Jurkat cells; conditions: Edg4 transfectants
Method: (§1) Jurkat T cells (2×10^7 in OPTI-MEM) were transfected with 2 μg of Edg4/EF3 or empty pCDEF3 vector for 4 hours at 37° C. using Lipofectin (Life Technologies, Inc). The transfected cells were maintained in RPMI 1640 medium containing 10% fetal bovine serum for 12 hours at 37° C. and washed three times with phosphate-buffered saline (PBS) before assessment of binding. Duplicate 0.2-ml aliquots of 2×10^6 cells were incubated with 200,000 cpm of ]^3H] LPA in 0.25% bovine serum albumnin-phosphate-buffered saline binding buffer for 45 minutes at 0° C. The final concentration of [^3H]LPA in the binding incubations was 10 nM. The binding cell suspensions were passed through GFIC filters that were washed with 12 ml of ice-cold PBS containing 0.05% Tween-20, air-dried, and added to scintillation fluid for quantification of radioactivity bound to the cells. Total and nonspecific binding were evaluated in the absence and the presence of 10 μM nonradioactive LPA, respectively. Specific binding was calculated from the difference in cpm between total binding and nonspecific binding.

[7] = test system: control vector-transfected Jurkat cells; assay: [3H]LPA binding in control vector-transfected Jurkat cells
Method: as §1

[8] = Edg-2 & -4 antisense pretreatment, lipid 10^−8 M
[9] = Sham transfectants, lipid 10^−8 M, anti-Fas alone = 100%
[10] = Sham transfectants, lipid 10^−9 M, anti-Fas alone = 100%
[11] = 1 μM lipid, Edg4-transfected Jurkat cells
[12] = 1 μM lipid, Edg2-transfected Jurkat cells

T1 sequence (Q9HBW0 with tags, fused parts or gaps): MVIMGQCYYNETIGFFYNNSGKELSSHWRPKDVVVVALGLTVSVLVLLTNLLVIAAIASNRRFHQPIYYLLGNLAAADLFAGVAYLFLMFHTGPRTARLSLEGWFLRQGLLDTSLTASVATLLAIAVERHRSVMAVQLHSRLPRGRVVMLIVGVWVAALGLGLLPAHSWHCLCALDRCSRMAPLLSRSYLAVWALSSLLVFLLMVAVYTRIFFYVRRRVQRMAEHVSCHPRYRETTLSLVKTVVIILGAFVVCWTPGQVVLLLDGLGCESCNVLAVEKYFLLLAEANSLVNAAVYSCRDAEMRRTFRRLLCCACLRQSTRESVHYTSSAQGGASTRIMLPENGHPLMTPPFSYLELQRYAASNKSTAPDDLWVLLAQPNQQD
T2 sequence (Q92633 whole entry): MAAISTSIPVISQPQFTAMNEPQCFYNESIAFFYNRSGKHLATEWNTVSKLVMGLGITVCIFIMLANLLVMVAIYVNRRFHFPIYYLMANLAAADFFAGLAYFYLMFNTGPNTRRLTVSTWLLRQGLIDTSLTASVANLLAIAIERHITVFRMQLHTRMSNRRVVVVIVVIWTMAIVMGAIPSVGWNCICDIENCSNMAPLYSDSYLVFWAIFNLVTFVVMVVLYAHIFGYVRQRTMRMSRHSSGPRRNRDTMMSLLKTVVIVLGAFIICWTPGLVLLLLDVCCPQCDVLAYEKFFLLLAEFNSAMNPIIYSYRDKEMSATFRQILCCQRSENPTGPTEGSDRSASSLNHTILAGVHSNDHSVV

In the case of COc1cccc(-c2cc(=O)c3ccccc3o2)c1N [MEK, 2′-amino-3′-methoxyflavone], the “percentage inhibition of the control SRE reporter response to LPA” value (MCF-7 BCCs; 10^−7 M LPA, serum-free DMEM) is reported as 41%, the “percentage inhibition of the control SRE reporter response to S1P” value (MCF-7 BCCs; 10^−7 M S1P, serum-free DMEM) is reported as 37% and the “percentage inhibition of the control SRE reporter response to LPA” value (MDA-MB-453 BCCs; 10^−7 M LPA, serum-free DMEM) is reported as 69%. For the same compound, the “percentage inhibition of the control SRE reporter response to S1P” value (MDA-MB-453 BCCs; 10^−7 M S1P, serum-free DMEM) was 61% and the “inhibition of LPA- and S1P-stimulated secretion of IGF-II” value (MCF-7 BCC) was “inhibited”.

In the case of CCCCCCCCCCCCC/C=C/[C@@H](O)[C@@H](N)COP(=O)(O)O [S1P, sphingosine 1-phosphate], the “increase in luciferase expression” value (Edg4 [1]) is reported as “failed to generate significant increases”, the “increase in luciferase expression” value (Edg2) is reported as “failed to generate significant increases” and the “maximal increase of mean luciferase luminometric activity” value (MCF-7 BCCs) is reported as at most 85 fold. For the same compound, the “mean maximal increase of luciferase luminometric activity” value (MDA-MB-453 BCCs) was 26 fold, the “effect on secretion of IGF-II” value (MCF-7 BCC) was “Stimulation” and the “effect on apoptosis evoked by C6-ceramide” value (Tsup-1 cells [2]) was “suppressed significantly”. The “effect on apoptosis induced by anti-Fas antibody and a combination of anti-CD3 and anti-CD28 antibodies” value (Tsup-1 cells [2]) was “prevent apoptosis”, the “percentage of control apoptosis” value (Tsup-1 cells [3]; [8]) was 22% and the “percentage of control apoptosis” value (Tsup-1 cells [3]; Edg-3 & -5 antisense pretreatment, lipid 10^−8 M) was 39% and 33%. For the same compound, the “percentage of control apoptosis” value (Tsup-1 cells [3]; Edg-3 & -5 antisense pretreatment, lipid 10^−9 M) was 53%, the “percentage of control apoptosis” value (Tsup-1 cells [3]; [9]) was 18% and the “percentage of control apoptosis” value (Tsup-1 cells [3]; [10]) was 30%.

For Lysophosphatidic acid [LPA], the “magnitude of evoked SRE-driven reporter activation of Edg4 relative to that of Edg2” value (Edg4 [4]) was “approximately four times higher”, the EC50 (Edg2; Edg2-transfected Jurkat cells) was about 10 nM and the “change in SRE-luciferase response” value [5] was “minimal changes”. For the same compound, the “number of LPA-binding sites (receptor density)” value (Edg4 [6]) was 33,000±3200, the “number of LPA-binding sites (receptor density)” value [7] was 15,000±1300 and the “maximal increase of mean luciferase luminometric activity” value (MCF-7 BCCs) was “up to 37 fold”. For the same compound, the “mean maximal increase of luciferase luminometric activity” value (MDA-MB-453 BCCs) was 24 fold, the “effect on secretion of IGF-II” value (MCF-7 BCC) was “Stimulation” and the “effect on apoptosis evoked by C6-ceramide” value (Tsup-1 cells [2]) was “not”. The “effect on apoptosis induced by anti-Fas antibody and a combination of anti-CD3 and anti-CD28 antibodies” value (Tsup-1 cells [2]) was “prevent apoptosis”, the “percentage of control apoptosis” value (Tsup-1 cells [3]; [8]) was 61% and the “percentage of control apoptosis” value (Tsup-1 cells [3]; Edg-2 & -4 antisense pretreatment, lipid 10^−9 M) was 69%. For the same compound, the “percentage of control apoptosis” value (Tsup-1 cells [3]; [9]) was 31% and the “percentage of control apoptosis” value (Tsup-1 cells [3]; [10]) was 51%.

With lysophosphatidyl-choline the “increase in luciferase expression” value (Edg4 [1]; [11]) was “failed to generate significant increases” and the “increase in luciferase expression” value (Edg2; [12]) was “failed to generate significant increases”.

With lysophosphatidyl-ethanolamine the “increase in luciferase expression” value (Edg4 [1]; [11]) was “failed to generate significant increases” and the “increase in luciferase expression” value (Edg2; [12]) was “failed to generate significant increases”.

For lysophosphatidyl-serine, the “increase in luciferase expression” value (Edg4 [1]; [11]) was “failed to generate significant increases” and the “increase in luciferase expression” value (Edg2; [12]) was “failed to generate significant increases”.

For phosphatidic acid [PA], the EC50 (Edg4 [1]; Edg4-transfected Jurkat cells, 10-h incubation, read-out: EC50 of activation of SRE-driven reporter gene) was at least 500 nM, the “magnitude of evoked SRE-driven reporter activation of Edg4 relative to that of Edg2” value (Edg4 [4]) was “approximately four times higher” and the EC50 (Edg2; Edg2-transfected Jurkat cells) was at least 500 nM.
